Laboratory results taken from US8623863B2, “Disubstituted azepan orexin receptor antagonists” (Merck Sharp & Dohme Corp., priority 2008, dated 2014).

Target: orexin-2 receptor (OX2R) (Homo sapiens (Human), UniProt O43614)
Assay: radioligand binding assay, OX2R
Conditions: membranes prepared from CHO cells expressing the orexin-2 (OX2) receptor
Protocol: The utility of the compounds in accordance with the present invention as orexin receptor OX1R and/or OX2R antagonists may be readily determined without undue experimentation by methodology well known in the art, including the “FLIPR Ca^2+ Flux Assay” (Okumura et al., Biochem. Biophys. Res. Comm. 280:976-981, 2001). In a typical experiment the OX1 and OX2 receptor antagonistic activity of the compounds of the present invention was determined in accordance with the following experimental method. For intracellular calcium measurements, Chinese hamster ovary (CHO) cells expressing the rat OX1 receptor or the human OX2 receptor, are grown in Iscove's modified DMEM containing 2 mM L-glutamine, […], 1% hypoxanthine-thymidine supplement, 100 U/ml penicillin, 100 ug/ml streptomycin and 10% heat-inactivated fetal calf serum (FCS). The cells are seeded at 20,000 cells/well into Becton-Dickinson black 384-well clear bottom sterile plates coated with poly-D-lysine. All reagents were from GIBCO-Invitrogen Corp. The seeded plates are incubated overnight at 37° C. and 5% CO2. Ala-6,12 human orexin-A as the agonist is prepared as a 1 mM stock solution in 1% bovine serum albumin (BSA) and diluted in assay buffer (HBSS containing 20 mM HEPES, 0.1% BSA and 2.5 mM probenecid, pH7.4) for use in the assay at a final concentration of 70 pM. Test compounds are prepared as 10 mM stock solution in DMSO, then diluted in 384-well plates, first in DMSO, then assay buffer. On the day of the assay, cells are washed 3 times with 100 ul assay buffer and then incubated for 60 min (37° C., 5% CO2) in 60 ul assay buffer containing 1 uM Fluo-4AM ester, 0.02% pluronic acid, and 1% BSA. The dye loading solution is then aspirated and cells are washed 3 times with 100 ul assay buffer. 30 ul of that same buffer is left in each well. Within the Fluorescent Imaging Plate Reader (FLIPR, Molecular Devices), test compounds are added to the plate in a volume of 25 ul, incubated for 5 min and finally 25 ul of agonist is added. Fluorescence is measured for each well at 1 second intervals for 5 minutes and the height of each fluorescence peak is compared to the height of the fluorescence peak induced by 70 pM Ala-6,12 orexin-A with buffer in place of antagonist. For each antagonist, IC50 value (the concentration of compound needed to inhibit 50% of the agonist response) is determined. Alternatively, compound potency can be assessed by a radioligand binding assay (described in Bergman et. al. Bioorg. Med. Chem. Lett. 2008, 18, 1425-1430) in which the inhibition constant (Ki) is determined in membranes prepared from CHO cells expressing either the orexin-1 (OX1) or orexin-2 (OX2) receptor. The intrinsic orexin receptor antagonist activity of a compound which may be used in the present invention may be determined by these assays.

Chain of orexin-2 receptor (OX2R) (O43614 whole entry): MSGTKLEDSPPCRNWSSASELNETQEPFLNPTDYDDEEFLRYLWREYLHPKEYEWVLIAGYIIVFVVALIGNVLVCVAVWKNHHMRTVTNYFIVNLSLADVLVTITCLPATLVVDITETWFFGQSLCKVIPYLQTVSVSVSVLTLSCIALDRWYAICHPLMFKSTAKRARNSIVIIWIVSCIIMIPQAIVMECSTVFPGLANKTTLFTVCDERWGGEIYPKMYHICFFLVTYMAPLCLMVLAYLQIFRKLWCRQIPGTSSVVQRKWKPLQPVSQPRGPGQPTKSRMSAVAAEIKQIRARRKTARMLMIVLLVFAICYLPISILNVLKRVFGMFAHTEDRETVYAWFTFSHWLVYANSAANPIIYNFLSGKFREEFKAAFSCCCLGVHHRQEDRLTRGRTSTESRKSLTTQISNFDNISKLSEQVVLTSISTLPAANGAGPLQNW

| Ki [nM] | Structure (SMILES) |
| --- | --- |
| 7.9 | Cc1ccc(-n2nccn2)c(C(=O)N2CCCCC(COc3ccc(F)c(C)c3)C2)c1 (stereo not drawn) [1-8, 3-[(4-Fluoro-3-methylphenoxy)methyl]-1-[5-methyl-2-(2H-1,2,3-triazol-2-yl)benzoyl]azepane] |
| 3.3 | Cc1ccc(-n2nccn2)c(C(=O)N2CC(COc3ccc(F)c(C)c3)CCCC2C)c1 (stereo not drawn) [2-8, 6-[(4-fluoro-3-methylphenoxy)methyl]-2-methyl-1-[5-methyl-2-(2H-1,2,3-triazol-2-yl)benzoyl]azepane] |
| 9.7 | Cc1ccc(-n2nccn2)c(C(=O)N2CC(COc3ccc(F)cn3)CCCC2C)c1 (stereo not drawn) [2-10, 6-{[(5-fluoropyridin-2-yl)oxy]methyl}-2-methyl-1-[5-methyl-2-(2H-1,2,3-triazol-2-yl)benzoyl]azepane] |
| 28 | CC1CCCC(COc2ccc(F)cn2)CN1C(=O)c1ccccc1-n1nccn1 (stereo not drawn) [2-11, 6-{[(5-fluoropyridin-2-yl)oxy]methyl}-2-methyl-1-[2-(2H-1,2,3-triazol-2-yl)benzoyl]azepane] |
| 4.2 | Cc1ccc(-c2nccs2)c(C(=O)N2CC(COc3ccc(F)c(C)c3)CCCC2C)c1 (stereo not drawn) [3-2, 6-[(4-fluoro-3-methylphenoxy)methyl]-2-methyl-1-[5-methyl-2-(1,3-thiazol-2-yl)benzoyl]azepane] |
| 10 | Cc1ccc(-c2ncccn2)c(C(=O)N2CC(COc3ccc(F)c(C)c3)CCCC2C)c1 (stereo not drawn) [3-3, 6-[(4-fluoro-3-methylphenoxy)methyl]-2-methyl-1-(5-methyl-2-pyrimidin-2-ylbenzoyl)azepane] |
| 13 | Cc1ccc(-c2ncco2)c(C(=O)N2CC(COc3ccc(F)cn3)CCCC2C)c1 (stereo not drawn) [3-4, 6-{[(5-fluoropyridin-2-yl)oxy]methyl}-2-methyl-1-[5-methyl-2-(1,3-oxazol-2-yl)benzoyl]azepane] |
| 3.8 | Cc1ccc(-c2nccs2)c(C(=O)N2CC(COc3ccc(F)cn3)CCCC2C)c1 (stereo not drawn) [3-5, 6-{[(5-fluoropyridin-2-yl)oxy]methyl}-2-methyl-1-[5-methyl-2-(1,3-thiazol-2-yl)benzoyl]azepane] |
| 14 | Cc1ccc(-c2ncccn2)c(C(=O)N2CC(COc3ccc(F)cn3)CCCC2C)c1 (stereo not drawn) [3-6, 6-{[(5-fluoropyridin-2-yl)oxy]methyl}-2-methyl-1-(5-methyl-2-pyrimidin-2-ylbenzoyl)azepane] |
| 8.7 | Cc1ccc(-n2nccn2)c(C(=O)N2CC(COc3ccc(F)c(C)c3)COCC2C)c1 (stereo not drawn) [4-8, 6-[(4-fluoro-3-methylphenoxy)methyl]-3-methyl-4-[5-methyl-2-(2H-1,2,3-triazol-2-yl)benzoyl]-1,4-oxazepane] |
| 11 | Cc1cc(OCC2COCC(C)N(C(=O)c3ccccc3-n3nccn3)C2)ccc1F (stereo not drawn) [4-9, 6-[(4-fluoro-3-methylphenoxy)methyl]-3-methyl-4-[2-(2H-1,2,3-triazol-2-yl)benzoyl]-1,4-oxazepane] |

| Structure (SMILES) | Ki [nM] |
| --- | --- |
| Cc1cc(OCC2CCCC(C)N(C(=O)c3ccccc3-n3nccn3)C2)ccc1F (stereo not drawn) [2-9, 6-[(4-fluoro-3-methylphenoxy)methyl]-2-methyl-1-[2-(2H-1,2,3-triazol-2-yl)benzoyl]azepane] | 10 |
